From patent publication US9409905B2, “Antibacterial compounds and methods for use” (PTC THERAPEUTICS, INC., priority 2011, dated 2016)
Converted amounts (≈) assume the structure as drawn.

Columns and labels:
[1] = test system: Escherichia coli (E. coli) BAS849; experiment: Antibacterial activity, microbroth dilution MIC (Table 1); type: cell-based; conditions: microbroth dilution, super sensitive Gram-negative E. coli BAS849, read-out: MIC, BAS849
In short: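 Growth inhibition by microbroth dilution. MIC = lowest μg/mL with no visible growth. Strain 25922 is the control Gram-negative; BAS849 is hypersensitive.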

[2] = test system: Staphylococcus aureus (S. aureus) 29213; experiment: as above; type: cell-based; conditions: microbroth dilution, Gram-positive S. aureus 29213, read-out: MIC, 29213
In short: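 Values are MICs (μg/mL): the smallest drug amount at which macroscopically visible bacterial growth is absent under assay conditions, from a microdilution method in broth.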

[3] = test system: E. coli 25922; experiment: as above; type: cell-based, Escherichia coli; conditions: Escherichia coli; microbroth dilution; control Gram-negative E. coli 25922 strain; read-out: MIC, 25922
In short: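 Lowest concentration stopping macroscopically visible growth under test conditions, by broth microdilution, defines the MIC (μg/mL).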

[4] = test system: E. coli LZ3111; experiment: Antibacterial activity, MIC, quinolone resistant strain (Table 2); type: cell-based; conditions: Escherichia coli, LZ3111, read-out: MIC LZ3111
In short: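 MIC values (μg/mL) came from a microbroth dilution assay, scored as the lowest drug concentration at which no growth was visible by eye.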

[5] = test system: E. coli ELZ4000; experiment: Antibacterial activity, MIC, multi-drug resistant clinical isolate (Table 3); type: cell-based; conditions: Escherichia coli, ELZ4000, read-out: MIC ELZ4000
In short: (§1)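 Compounds were serially diluted in broth microdilution format and growth was scored visually; the MIC is the lowest concentration at which no macroscopically visible growth occurred, expressed in μg/mL.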

[6] = test system: E. coli ELZ4251; experiment: as above; type: cell-based; conditions: Escherichia coli
In short: as §1

[7] = test system: Acinetobacter baumannii (A. baumannii) BAA747; experiment: Antibacterial activity, MIC (Table 4); type: cell-based; conditions: A. baumannii BAA747, read-out: MIC, BAA747
In short: (§2)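 Values are MICs in μg/mL, read as the lowest compound concentration at which no growth is visible by eye. They come from a microbroth dilution method.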

[8] = test system: Klebsiella pneumoniae (K. pneumoniae) 35657; experiment: Antibacterial activity, MIC (Table 4); type: cell-based; conditions: K. pneumoniae 35657, read-out: MIC, 35657
In short: as §2

[9] = test system: A. baumannii MXX2240; experiment: Antibacterial activity, MIC, resistant strain (Table 4); type: cell-based; conditions: Acinetobacter baumannii, MXX2240; resistant A. baumannii MMX2240, multi-drug resistant clinical isolate; read-out: MIC, MMX2240
In short: as §2

[10] = test system: K. pneumoniae MXX1232; experiment: as above; type: cell-based; conditions: Klebsiella pneumoniae, MXX1232; resistant K. pneumoniae MMX1232, multi-drug resistant clinical isolate; read-out: MIC, MMX1232
In short: as §2

[11] = test system: Pseudomonas aeruginosa (P. aeruginosa) 27853; experiment: Antibacterial activity, MIC (Table 5); type: cell-based; conditions: P. aeruginosa 27853, read-out: MIC, 27853
In short: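 Values are MICs in μg/mL, read as the lowest concentration at which no growth is visible by eye. They were determined by a microbroth dilution method.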

[12] = test system: Haemophilus influenzae (H. influenzae) 49247; experiment: Antibacterial activity, MIC (Table 6); type: cell-based
Excerpt: (§3) The antibacterial activity from a microbroth dilution method may be presented as the minimum inhibitory concentration (MIC in μg/mL). The MIC value is the lowest concentration of drug which prevents macroscopically visible growth under test conditions.
(§4) Antibacterial activity of test compounds against the Gram-negative bacteria Haemophilus influenzae (H. influenzae) 49247 is shown in Table 6, Moraxella catarrhalis (M. catarrhalis) 25238 is shown in Table 7 and Neisseria meningitidis (N. meningitidis) 13090 is shown in Table 8.

[13] = test system: Moraxella catarrhalis (M. catarrhalis) 25238; experiment: Antibacterial activity, MIC (Table 7); type: cell-based
Excerpt: as §3, §4

[14] = test system: Neisseria meningitidis (N. meningitidis) 13090; experiment: Antibacterial activity, MIC (Table 8); type: cell-based
Excerpt: as §3, §4

Compound	MIC [1]	MIC [2]	MIC [3]	MIC [4]	MIC [5]	MIC [6]	MIC [7]	MIC [8]	MIC [9]	MIC [10]	MIC [11]	MIC [12]	MIC [13]	MIC [14]
CCc1c(-c2ccc3c(c2)cc(CNC2(C)CCC2)n3C)[nH]c(=O)c(C(=O)O)c1O.Cl [Cpd 245, 5-ethyl-4-hydroxy-6-(1-methyl-2-((1-methylcyclobutylamino)methyl)-1H-indol-5-yl)-2-oxo-1,2-dihydropyridine-3-carboxylic acid hydrochloride]	< 1 mg/L	3.5 to 12.5 mg/L	< 1 mg/L	1 to 3.5 mg/L	3.5 to 12.5 mg/L	1 to 3.5 mg/L	< 1 mg/L	< 1 mg/L	1 to 3.5 mg/L	12.5 to 150 mg/L	3.5 to 12.5 mg/L	< 1 mg/L	< 1 mg/L	< 1 mg/L
CCc1c(-c2ccc3c(c2)cc(CN2CC[C@H](N)C2)n3C)[nH]c(=O)c(C(=O)O)c1O [Cpd 180, (S)-6-(2-((3-aminopyrrolidin-1-yl)methyl)-1-methyl-1H-indol-5-yl)-5-ethyl-4-hydroxy-2-oxo-1,2-dihydropyridine-3-carboxylic acid]	< 1 mg/L	12.5 to 150 mg/L (≈ 30.5 to 365 µM)	1 to 3.5 mg/L (≈ 2.44 to 8.53 µM)	1 to 3.5 mg/L (≈ 2.44 to 8.53 µM)	12.5 to 150 mg/L (≈ 30.5 to 365 µM)	3.5 to 12.5 mg/L (≈ 8.53 to 30.5 µM)	12.5 to 150 mg/L (≈ 30.5 to 365 µM)	3.5 to 12.5 mg/L (≈ 8.53 to 30.5 µM)	12.5 to 150 mg/L (≈ 30.5 to 365 µM)	12.5 to 150 mg/L (≈ 30.5 to 365 µM)	12.5 to 150 mg/L (≈ 30.5 to 365 µM)	1 to 3.5 mg/L (≈ 2.44 to 8.53 µM)	3.5 to 12.5 mg/L (≈ 8.53 to 30.5 µM)	1 to 3.5 mg/L (≈ 2.44 to 8.53 µM)
CCc1c(-c2ccc3c(c2)cc(CN2CCC(N(C)C)C2)n3C)[nH]c(=O)c(C(=O)O)c1O (stereo not drawn) [Cpd 200, 6-(2-((3-(dimethylamino)pyrrolidin-1-yl)methyl)-1-methyl-1H-indol-5-yl)-5-ethyl-4-hydroxy-2-oxo-1,2-dihydropyridine-3-carboxylic acid]	< 1 mg/L	3.5 to 12.5 mg/L (≈ 7.98 to 28.5 µM)	1 to 3.5 mg/L (≈ 2.28 to 7.98 µM)	1 to 3.5 mg/L (≈ 2.28 to 7.98 µM)	12.5 to 150 mg/L (≈ 28.5 to 342 µM)	12.5 to 150 mg/L (≈ 28.5 to 342 µM)	3.5 to 12.5 mg/L (≈ 7.98 to 28.5 µM)	12.5 to 150 mg/L (≈ 28.5 to 342 µM)	12.5 to 150 mg/L (≈ 28.5 to 342 µM)	12.5 to 150 mg/L (≈ 28.5 to 342 µM)	12.5 to 150 mg/L (≈ 28.5 to 342 µM)	1 to 3.5 mg/L (≈ 2.28 to 7.98 µM)	1 to 3.5 mg/L (≈ 2.28 to 7.98 µM)	< 1 mg/L
Cn1ccc2cc(-c3[nH]c(=O)c(C(=O)O)c(O)c3C3CC3)ccc21 [Cpd 36, 5-cyclopropyl-4-hydroxy-6-(1-methyl-1H-indol-5-yl)-2-oxo-1,2-dihydropyridine-3-carboxylic acid]	1 to 3.5 mg/L (≈ 3.08 to 10.8 µM)	3.5 to 12.5 mg/L (≈ 10.8 to 38.5 µM)	12.5 to 150 mg/L (≈ 38.5 to 462 µM)	3.5 to 12.5 mg/L (≈ 10.8 to 38.5 µM)	3.5 to 12.5 mg/L (≈ 10.8 to 38.5 µM)	1 to 3.5 mg/L (≈ 3.08 to 10.8 µM)	12.5 to 150 mg/L (≈ 38.5 to 462 µM)	12.5 to 150 mg/L (≈ 38.5 to 462 µM)	1 to 3.5 mg/L (≈ 3.08 to 10.8 µM)	12.5 to 150 mg/L (≈ 38.5 to 462 µM)	12.5 to 150 mg/L (≈ 38.5 to 462 µM)	3.5 to 12.5 mg/L (≈ 10.8 to 38.5 µM)	1 to 3.5 mg/L (≈ 3.08 to 10.8 µM)	< 1 mg/L
Cc1c(-c2ccc3c(c2)cc(CN(C)C)n3C)[nH]c(=O)c(C(=O)O)c1O [Cpd 314, 6-(2-((dimethylamino)methyl)-1-methyl-1H-indol-5-yl)-4-hydroxy-5-methyl-2-oxo-1,2-dihydropyridine-3-carboxylic acid]	< 1 mg/L	12.5 to 150 mg/L (≈ 35.2 to 422 µM)	3.5 to 12.5 mg/L (≈ 9.85 to 35.2 µM)	1 to 3.5 mg/L (≈ 2.81 to 9.85 µM)	3.5 to 12.5 mg/L (≈ 9.85 to 35.2 µM)	1 to 3.5 mg/L (≈ 2.81 to 9.85 µM)	3.5 to 12.5 mg/L (≈ 9.85 to 35.2 µM)	3.5 to 12.5 mg/L (≈ 9.85 to 35.2 µM)	1 to 3.5 mg/L (≈ 2.81 to 9.85 µM)	12.5 to 150 mg/L (≈ 35.2 to 422 µM)	12.5 to 150 mg/L (≈ 35.2 to 422 µM)	1 to 3.5 mg/L (≈ 2.81 to 9.85 µM)	3.5 to 12.5 mg/L (≈ 9.85 to 35.2 µM)	< 1 mg/L
CCc1c(-c2ccc3c(c2)cc(CN2CC(N)C2)n3C)[nH]c(=O)c(C(=O)O)c1O [Cpd 188, 6-(2-((3-aminoazetidin-1-yl)methyl)-1-methyl-1H-indol-5-yl)-5-ethyl-4-hydroxy-2-oxo-1,2-dihydropyridine-3-carboxylic acid]	< 1 mg/L	12.5 to 150 mg/L (≈ 31.5 to 378 µM)	< 1 mg/L	1 to 3.5 mg/L (≈ 2.52 to 8.83 µM)	12.5 to 150 mg/L (≈ 31.5 to 378 µM)	12.5 to 150 mg/L (≈ 31.5 to 378 µM)	12.5 to 150 mg/L (≈ 31.5 to 378 µM)	12.5 to 150 mg/L (≈ 31.5 to 378 µM)	12.5 to 150 mg/L (≈ 31.5 to 378 µM)	12.5 to 150 mg/L (≈ 31.5 to 378 µM)	12.5 to 150 mg/L (≈ 31.5 to 378 µM)	3.5 to 12.5 mg/L (≈ 8.83 to 31.5 µM)	3.5 to 12.5 mg/L (≈ 8.83 to 31.5 µM)	3.5 to 12.5 mg/L (≈ 8.83 to 31.5 µM)
